The text below walks through data of the C3SDB collision cross section collection.

SMILES strings stand for the structures. Values joined by “and” are separate entries in the source; they are usually repeats but may differ in a detail not shown here. Equal entries are not always repeated.

For series [1] the following is noted: [M+H]+; instrument: TW.
For series [2] the following is noted: instrument: DT, single field, calibrated with Agilent tune mix (Agilent).
The conditions of series [3]: instrument: DT, single field.
The conditions of series [4]: [M+NH4]+; instrument: DT; single field, calibrated with Agilent tune mix (Agilent).
For series [5] the following is noted: [M+Na]+; instrument: DT; stepped-field.

Regarding `C[C@]12CCC(=O)C=C1CC[C@@H]1[C@@H]2C(=O)C[C@@]2(C)[C@H]1CC[C@]2(O)C(=O)CO` [Cortisone], the “collision cross section (N2)” value in series [1] was determined as 184 Å²; in series [2] ([M+H]+), 188.6 Å²; in series [2] ([M-H2O-H]-), 180.07 Å². As to `CCCCC/C=C\C/C=C\CCCCCCCC(=O)O[C@@H](CO)COC(=O)CCCCCCCCCCCC` [DG(31:2)], the “collision cross section (N2)” value in series [3] ([M+NH4]+) came out at 249.72 Å². On to `CCCCCCCC/C=C\CCCCCCCCCC(=O)O[C@@H](CO)COC(=O)CCCCCCCCCCC` [DG(32:1)], for which the “collision cross section (N2)” value in series [3] ([M+NH4]+) worked out at 255.8 Å².

Take `CCCC/C=C\C/C=C\CCCCCCCC(=O)O[C@@H](CO)COC(=O)CCCCCCCCCCCCCCCC` [DG(34:2)]: the “collision cross section (N2)” value in series [3] ([M+NH4]+) was 257.59 Å² and 259.54 Å²; in series [4] it was 257.9 Å². Turning to `CCCCC/C=C\C/C=C\C/C=C\CCCCCCCCC(=O)O[C@@H](CO)COC(=O)CCCCCCCCCCCCC` [DG(36:3)], the “collision cross section (N2)” value in series [3] ([M+NH4]+) turned out to be 261.08 Å². The same measure, in the same setting: the value for `CCCCC/C=C\C/C=C\C/C=C\CCCCC(=O)OC[C@H](CO)OC(=O)CCCCCCC/C=C\CCCCCCCC` [DG(36:4)] was 257.21 Å²; that for `CCCC/C=C\CCCCCCCC(=O)OC[C@H](CO)OC(=O)CCCCC/C=C\C/C=C\C/C=C\C/C=C\CCCCC` [DG(36:5)] was 254.91 Å²; that for `CCCCC/C=C\C/C=C\C/C=C\C/C=C\CCCC(=O)O[C@@H](CO)COC(=O)CCCC/C=C\C/C=C\C/C=C\CCCCC` [DG(38:7)] was 259.31 Å². Regarding `CC/C=C\C/C=C\C/C=C\C/C=C\C/C=C\CCCCCC(=O)O[C@@H](CO)COC(=O)CCCC/C=C\C/C=C\C/C=C\CCCCC` [DG(40:8)], the “collision cross section (N2)” value in series [3] ([M+NH4]+) was found to be 266.74 Å². `CCCCCCCCCCCCC=CCC=CCC=CCC=CCC(=O)N[C@@H](COP(=O)([O-])OCC[N+](C)(C)C)[C@H](O)CC=CCCCCCCCCCCCC` [SM(43:5)]: the “collision cross section (N2)” value in series [3] ([M+H]+) stood at 301.97 Å². Consider `CCCCCC/C=C\CCCCCCCC(=O)OC[C@@H](COC(=O)CCCCCCCCCCC)OC(=O)CCCCCCCCCCC` [TG(40:1)], for which the “collision cross section (N2)” value in series [3] ([M+NH4]+) is 282.64 Å² and 284.9 Å²; in series [3] ([M+Na]+), 280.45 Å² and 283.77 Å². Turning to `CCCCCCCC/C=C\CCCCCCCC(=O)OC[C@@H](COC(=O)CCCCCCCCCCC)OC(=O)CCCCCCCCCCC` [TG(42:1)], the “collision cross section (N2)” value was 289.72 Å² and 292.07 Å² and 292.03 Å² in series [3] ([M+NH4]+); 288.53 Å² and 291.03 Å² in series [3] ([M+Na]+); 288.5 Å² in series [4]. With `CCCCCCCCCC/C=C\CCCCCCCCCC(=O)OC[C@@H](COC(=O)CCCCCCCCCCC)OC(=O)CCCCCCCCCCC` [TG(46:1)], in series [3] ([M+Na]+), the “collision cross section (N2)” value was 302.27 Å² and 304.44 Å². As for `CCCCCCC/C=C\CCCCCCCC(=O)OC[C@@H](COC(=O)CCCCCCCCCCC)OC(=O)CCCCCCC/C=C\CCCCCCC` [TG(46:2)], the “collision cross section (N2)” value is 300.67 Å² and 303.01 Å² in series [3] ([M+NH4]+); 299.74 Å² and 302.02 Å² in series [3] ([M+Na]+); 300.4 Å² in series [4].

For `CCCCCCCCCC/C=C\CCCCCCCCCC(=O)OC[C@@H](COC(=O)CCCCCCCCCCCC)OC(=O)CCCCCCCCCCCC` [TG(48:1)], the “collision cross section (N2)” value was 308.88 Å² and 310.77 Å² in series [3] ([M+Na]+); 310.9 Å² in series [4]. Consider `CCCCC/C=C\CCCCCCCC(=O)OC[C@H](COC(=O)CCCCCCC/C=C\CCCCCCCCC)OC(=O)CCCCCCC/C=C\CCCCC` [TG(49:3)], for which the “collision cross section (N2)” value in series [3] ([M+NH4]+) is 308.33 Å² and 309.79 Å² and 313.23 Å²; in series [3] ([M+Na]+) it was 308.93 Å²; in series [4], 307.8 Å². For the compound `CCCCCCCCCC/C=C\CCCCCCCCCC(=O)OC[C@@H](COC(=O)CCCCCCCCCCCCC)OC(=O)CCCCCCCCCCCCC` [TG(50:1)], the “collision cross section (N2)” value in series [3] ([M+Na]+) was 315.05 Å² and 316.8 Å².

Regarding `CCCCCCCCC/C=C\CCCCCCCC(=O)OC[C@@H](COC(=O)CCCCCCCCCCCCCCC)OC(=O)CCCCCCCCCCCCCCC` [TG(51:1)], the “collision cross section (N2)” value in series [3] ([M+Na]+) is 317.97 Å² and 320.06 Å². Turning to `CCCCCCCCCCCCCCCCCCCC(=O)OC[C@@H](COC(=O)CCCCCCCCCCC)OC(=O)CCCCCCCCCCCCCCCCCCC` [TG(52:0)], the “collision cross section (N2)” value in series [3] ([M+NH4]+) is 323.2 Å² and 325.31 Å²; in series [3] ([M+Na]+), 323.38 Å²; in series [4], 323.4 Å². For `CCCC/C=C\CCCCCCCC(=O)OC[C@H](COC(=O)CCCCCCC/C=C\CCCCCCCCC)OC(=O)CCCCCCC/C=C\CCCCCCCCC` [TG(52:3)], the “collision cross section (N2)” value in series [3] ([M+NH4]+) was 318.16 Å² and 320.59 Å² and 322.8 Å²; in series [3] ([M+Na]+) it was 317.01 Å² and 319.26 Å²; in series [4], 320.2 Å².

On to `CCCCCCCC/C=C\CCCCCCCCCC(=O)OC[C@@H](COC(=O)CCCCCCCCCCCC)OC(=O)CCCCCCCCC/C=C\CCCCCCCC` [TG(53:2)], for which the “collision cross section (N2)” value was 321.52 Å² and 323.87 Å² in series [3] ([M+Na]+); 323.6 Å² in series [4]. Take `CCCCC/C=C\CCCCCCCC(=O)OC[C@H](COC(=O)CCCCCCC/C=C\CCCCCCCCC)OC(=O)CCCCCCC/C=C\CCCCCCCCC` [TG(53:3)]: the “collision cross section (N2)” value in series [3] ([M+Na]+) is 319.33 Å² and 321.38 Å². As to `CCCCC/C=C\C/C=C\C/C=C\C/C=C\CCCCCC(=O)OC[C@@H](COC(=O)CCCCCCCCCCCCC)OC(=O)CCCCCCC/C=C\CCCCCCC` [TG(53:5)], the “collision cross section (N2)” value in series [3] ([M+NH4]+) was 317.8 Å² and 320.46 Å² and 322.68 Å²; in series [4], 317.4 Å².

In the case of `CCCC/C=C\CCCCCCCC(=O)OC[C@H](COC(=O)CCCCCCCCCCCCCCCCCCC)OC(=O)CCCCCCCCCCCCCCCCCCC` [TG(54:1)], the “collision cross section (N2)” value is 325.86 Å² and 328.61 Å² in series [3] ([M+Na]+); 328.4 Å² in series [4]. As to `CCCC/C=C\CCCCCCCC(=O)OC[C@H](COC(=O)CCCCCCCCC/C=C\CCCCCCCC)OC(=O)CCCCCCCCC/C=C\CCCCCCCC` [TG(54:3)], the “collision cross section (N2)” value in series [3] ([M+NH4]+) is 324.13 Å² and 326.41 Å² and 329.85 Å²; in series [3] ([M+Na]+), 322.77 Å² and 324.86 Å²; in series [4], 326.5 Å². Consider `CC/C=C\C/C=C\C/C=C\C/C=C\CCCCC(=O)O[C@H](COC(=O)CCCCCCC/C=C\CCCCCCC)COC(=O)CCCCCCC/C=C\CCCCCCCCC` [TG(54:6)], for which the “collision cross section (N2)” value is 316.05 Å² and 318.28 Å² in series [3] ([M+Na]+); 319.9 Å² in series [4]. With `CCCCC/C=C\CCCCCCCC(=O)OC[C@H](COC(=O)CCCCCCCCCCCCCCCCCCC)OC(=O)CCCCCCCCCCCCCCCCCCC` [TG(55:1)], in series [3] ([M+NH4]+), the “collision cross section (N2)” value is 334.9 Å² and 337.31 Å² and 332.94 Å². In the case of `CCCCC/C=C\CCCCCCCC(=O)OC[C@H](COC(=O)CCCCCCCCC/C=C\CCCCCCCC)OC(=O)CCCCCCCCC/C=C\CCCCCCCC` [TG(55:3)], the “collision cross section (N2)” value in series [3] ([M+NH4]+) was 330.49 Å² and 333.23 Å² and 328.28 Å²; in series [4] it was 327.5 Å². As for `CCCCC/C=C\C/C=C\C/C=C\C/C=C\CCCCCC(=O)OC[C@@H](COC(=O)CCCCCCCCCCC)OC(=O)CCCCCCCCCCCCCCCCCCCC` [TG(55:4)], the “collision cross section (N2)” value in series [3] ([M+NH4]+) was 328.36 Å² and 330.81 Å² and 326.47 Å²; in series [4], 326 Å².

With `CCCCCCCCCC/C=C\CCCCCCCCCC(=O)OC[C@@H](COC(=O)CCCCCCCCCCC)OC(=O)CCCCCCCCC/C=C\CCCCCCCCCC` [TG(56:2)], the “collision cross section (N2)” value in series [3] ([M+Na]+) turned out to be 332.96 Å²; in series [4], 332.8 Å².

Consider `CC/C=C\C/C=C\C/C=C\C/C=C\C/C=C\CCCC(=O)OC[C@@H](COC(=O)CCCCCCCCCCCCCCCCC)OC(=O)CCCC/C=C\C/C=C\C/C=C\CCCCC` [TG(56:8)], for which the “collision cross section (N2)” value was 323.28 Å² and 324.75 Å² in series [3] ([M+NH4]+); 325.6 Å² in series [4]. With `CC/C=C\C/C=C\C/C=C\CCCCCCCC(=O)O[C@@H](COC(=O)CCC/C=C\C/C=C\C/C=C\C/C=C\CCCCC)COC(=O)CCCCCCC/C=C\C/C=C\CCCCC` [TG(56:9)], in series [3] ([M+NH4]+), the “collision cross section (N2)” value came to 321.77 Å².

Turning to `CCCCCCCCC/C=C\CCCCCCCC(=O)OC[C@@H](COC(=O)CCCCCCCCCCCCCCCCCC)OC(=O)CCCCCCCCCCCCCCCCCC` [TG(57:1)], the “collision cross section (N2)” value in series [3] ([M+NH4]+) is 340.07 Å² and 342.55 Å².

On to `CCCC/C=C\CCCCCCCC(=O)OC[C@H](COC(=O)CCCCCCCCCCCCCCCCCCCCC)OC(=O)CCCCCCCCCCCCCCCCCCCCC` [TG(58:1)], for which the “collision cross section (N2)” value in series [3] ([M+NH4]+) was 342.62 Å² and 345.63 Å² and 341.8 Å². Take `CCCCC/C=C\C/C=C\C/C=C\CCCCCCCCC(=O)OC[C@@H](COC(=O)CCCCCCCCCCCCCCCCC)OC(=O)CCCCCCC/C=C\CCCCCCCCC` [TG(59:4)]: in series [3] ([M+NH4]+), the “collision cross section (N2)” value was 340.53 Å² and 343 Å². Consider `CCCCC/C=C\C/C=C\C/C=C\C/C=C\CCCC(=O)O[C@@H](COC(=O)CCCCCCCCCCC/C=C\C/C=C\CCCCC)COC(=O)CCCCCCCCCCCCCCCC` [TG(59:6)], for which the “collision cross section (N2)” value in series [3] ([M+NH4]+) was 339.13 Å². Take `c1ccc2[nH]c(-c3cscn3)nc2c1` [Thiabendazole]: the “collision cross section (N2)” value in series [5] was found to be 164.17 Å²; in series [1] it was 136.19 Å². Consider `O=C(NC(=O)c1ccccc1Cl)Nc1ccc(OC(F)(F)F)cc1` [Triflumuron], for which the “collision cross section (N2)” value in series [1] is reported as 169.88 Å².

Regarding `CC1(C)CC/C(=C\c2ccc(Cl)cc2)C1(O)Cn1cncn1` (stereo unspecified) [Triticonazole], in series [1], the “collision cross section (N2)” value came to 179.18 Å². As to `CC[C@H]1OC(=O)C[C@@H](O)[C@H](C)[C@@H](O[C@@H]2O[C@H](C)[C@@H](O[C@H]3C[C@@](C)(O)[C@@H](O)[C@H](C)O3)[C@H](N(C)C)[C@H]2O)[C@@H](CC=O)C[C@@H](C)C(=O)/C=C/C(C)=C/[C@@H]1CO[C@@H]1O[C@H](C)[C@@H](O)[C@@H](OC)[C@H]1OC` [Tylosine], the “collision cross section (N2)” value in series [1] was found to be 332.4 Å².
